{"source": "patent US4689326A", "about": "“Process for controlling hyperlipidemia” (Research Corporation, priority 1985, dated 1987)", "key": {"Acetyl CoA Synthetase": {"target": "T1, Acetyl CoA Synthetase (Mus musculus, UniProt Q9QXG4)", "T1 construct": "10% homogenates of CF1 male mouse liver; from tissue; host or cells: CF1 male mouse liver, 10% homogenate", "T1 sequence (Q9QXG4 whole entry)": "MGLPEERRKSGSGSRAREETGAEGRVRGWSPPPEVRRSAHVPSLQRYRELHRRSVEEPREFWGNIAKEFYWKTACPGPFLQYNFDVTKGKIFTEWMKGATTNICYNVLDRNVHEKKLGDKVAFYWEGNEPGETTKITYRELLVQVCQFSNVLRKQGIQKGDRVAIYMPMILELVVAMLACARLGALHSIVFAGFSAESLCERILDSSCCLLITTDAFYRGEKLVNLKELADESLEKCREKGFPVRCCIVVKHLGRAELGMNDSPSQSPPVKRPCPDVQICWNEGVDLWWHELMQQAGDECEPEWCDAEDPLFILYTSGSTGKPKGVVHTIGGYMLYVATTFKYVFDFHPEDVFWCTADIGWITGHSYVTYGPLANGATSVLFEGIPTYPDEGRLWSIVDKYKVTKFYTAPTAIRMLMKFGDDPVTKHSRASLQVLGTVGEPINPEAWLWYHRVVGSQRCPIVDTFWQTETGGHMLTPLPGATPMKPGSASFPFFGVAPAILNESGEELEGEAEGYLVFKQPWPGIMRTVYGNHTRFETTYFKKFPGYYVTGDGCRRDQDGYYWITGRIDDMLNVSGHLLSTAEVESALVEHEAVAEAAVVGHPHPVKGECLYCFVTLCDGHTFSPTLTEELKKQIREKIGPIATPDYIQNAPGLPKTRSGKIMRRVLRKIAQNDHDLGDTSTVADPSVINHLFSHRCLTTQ", "test": "In vitro enzyme activity, liver homogenate: acetyl CoA synthetase", "assay_type": "biochemical, CF1 male mouse", "details": "± SD, N = 6, read-out: Percent Control, in vitro enzyme activity", "experimental": "(§1) In vitro enzymatic studies were undertaken using 10% homogenates of CF1 male mouse liver with […] of compound 3,4,5,6-dibenzohomopiperidine. In addition, in vivo enzymatic studies were performed, again using 10% liver homogenates (prepared in 0.25 M sucrose plus 0.001 M (ethylenedinitrilo)-tetraacetic acid, ph 7.25 from CF1 male mice obtained after administering 3,4,5,6-dibenzohomopiperidine for 16 days at a concentration ranging from 10 to 60 mg/kg/day, intraperitoneally.\n(§2) The following enzyme activities were determined by following standard literature procedures: acetyl coenzyme synthetase; adenosine triphosphate dependent citrate lyase; mitochondrial citrate exchange; cholesterol/7 hydroxylase; 3-hydroxy-3-methyl-glutaryl coenzyme A reductase; acetyl coenzyme A carboxylase activity; fatty acid synthetase activity; sn-glycerol-3-phosphate acyl transferase activity; phosphatidate phosphohydrolase activity; cholesterol acyl transferase; and heparin activated hepatic lypoprotein lipase. Protein was determined for all enzyme assays by the Lowry et al. technique (J. Biol. Chem, 193, 265 (1951))."}, "HDL": {"test_system": "HDL", "test": "Lipoprotein fractions in Rats, Example 11: HDL", "assay_type": "in vivo, Sprague Dawley male rats", "details": "oral 20 mg/kg/day, fourteen days, ± SD", "experimental": "(§3) A group of six Sprague Dawley male rats were treated with 20 mg/kg/day of 3,4,5,6-dibenzohomopiperidine. The treatment was applied orally. An equal number of Sprague Dawley male rats, having approximately the same weight, were utilized as an untreated control. At the end of fourteen days the control and treated rats were sacrificed. Blood was collected from the abdominal aorta and lipoprotein fractions were obtained by the method of Hatch and Lees [Adv. Lipid Rees., 6, 1 (1968)] and Havel et al. [J. Clin Invest., 34, 1345 (1955)]. Each of the fractions were analyzed for cholesterol, triglycerides, neutral lipids, phospholipids and protein levels."}, "LDL": {"test_system": "LDL", "test": "Lipoprotein fractions in Rats, Example 11: LDL", "assay_type": "in vivo, Sprague Dawley male rats", "details": "oral 20 mg/kg/day, fourteen days, ± SD", "experimental": "as §3"}, "VLDL": {"test_system": "VLDL", "test": "Lipoprotein fractions in Rats, Example 11: VLDL", "assay_type": "in vivo, Sprague Dawley male rats", "details": "oral 20 mg/kg/day, fourteen days, ± SD", "experimental": "as §3"}, "HMG CoA Reductase [1]": {"test_system": "HMG CoA Reductase", "test": "In vivo enzyme activity, liver of treated mice: HMG CoA reductase", "parameters": "species or system CF1 male mice", "details": "16 days, ± SD", "experimental": "as §1, §2"}, "Liver": {"test_system": "Liver", "test": "Lipid Extraction Studies in Rats, Example 11: liver", "assay_type": "in vivo, Sprague Dawley male rats", "details": "oral 20 mg/kg/day, fourteen days, ± SD"}, "HMG CoA Reductase [2]": {"target": "T2, HMG CoA Reductase (Mus musculus, UniProt Q01237)", "T2 construct": "10% homogenates of CF1 male mouse liver; from tissue; host or cells: CF1 male mouse liver, 10% homogenate", "T2 sequence (Q01237 1-887)": "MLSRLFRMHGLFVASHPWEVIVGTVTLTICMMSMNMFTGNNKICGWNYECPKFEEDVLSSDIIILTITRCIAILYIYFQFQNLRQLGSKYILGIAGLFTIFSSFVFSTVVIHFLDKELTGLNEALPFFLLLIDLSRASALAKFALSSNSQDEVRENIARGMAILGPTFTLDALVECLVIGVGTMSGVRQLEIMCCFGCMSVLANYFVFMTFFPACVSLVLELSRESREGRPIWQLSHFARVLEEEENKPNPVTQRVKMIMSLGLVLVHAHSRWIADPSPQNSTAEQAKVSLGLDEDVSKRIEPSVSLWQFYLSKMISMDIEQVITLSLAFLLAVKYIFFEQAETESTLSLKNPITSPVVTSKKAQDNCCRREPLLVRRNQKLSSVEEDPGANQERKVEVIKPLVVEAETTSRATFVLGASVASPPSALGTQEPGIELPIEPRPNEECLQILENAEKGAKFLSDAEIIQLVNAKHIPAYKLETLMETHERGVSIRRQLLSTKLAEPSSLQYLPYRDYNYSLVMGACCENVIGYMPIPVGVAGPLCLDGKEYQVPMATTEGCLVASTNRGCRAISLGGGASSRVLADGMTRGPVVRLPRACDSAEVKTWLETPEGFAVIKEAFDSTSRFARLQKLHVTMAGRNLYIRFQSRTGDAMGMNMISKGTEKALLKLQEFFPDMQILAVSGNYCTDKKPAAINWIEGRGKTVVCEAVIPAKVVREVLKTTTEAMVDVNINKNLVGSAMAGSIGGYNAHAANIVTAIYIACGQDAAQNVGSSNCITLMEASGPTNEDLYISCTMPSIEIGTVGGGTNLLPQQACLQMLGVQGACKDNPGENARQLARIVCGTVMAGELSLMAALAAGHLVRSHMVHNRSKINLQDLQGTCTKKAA", "test": "In vitro enzyme activity, liver homogenate: HMG CoA reductase", "assay_type": "biochemical, CF1 male mouse", "details": "± SD, N = 6, read-out: Percent Control, in vitro enzyme activity", "experimental": "as §1, §2"}}, "data": [{"smiles": "c1ccc2c(c1)CNCc1ccccc1-2", "note": "[Compound 3, 3,4,5,6-dibenzohomopiperidine]", "values": [{"measurement": "remaining activity at 50 µM", "setting": "Acetyl CoA Synthetase; 50 μM", "result": "112 ± 6", "unit": "%"}, {"measurement": "remaining activity at 100 µM", "setting": "Acetyl CoA Synthetase; 100 μM", "result": "100 ± 7", "unit": "%"}, {"measurement": "remaining activity at 200 µM", "setting": "Acetyl CoA Synthetase; 200 μM", "result": "101 ± 6", "unit": "%"}, {"measurement": "Cholesterol, concentration as a function of control", "setting": "HDL", "result": "106 ± 5", "unit": "%"}, {"measurement": "Neutral Lipids, concentration as a function of control", "setting": "HDL", "result": "59 ± 5", "unit": "%"}, {"measurement": "Phospholipids, concentration as a function of control", "setting": "HDL", "result": "64 ± 3", "unit": "%"}, {"measurement": "Protein, concentration as a function of control", "setting": "HDL", "result": "106 ± 7", "unit": "%"}, {"measurement": "Triglycerides, concentration as a function of control", "setting": "HDL", "result": "40 ± 2", "unit": "%"}, {"measurement": "Cholesterol, concentration as a function of control", "setting": "LDL", "result": "82 ± 8", "unit": "%"}, {"measurement": "Neutral Lipids, concentration as a function of control", "setting": "LDL", "result": "107 ± 9", "unit": "%"}, {"measurement": "Phospholipids, concentration as a function of control", "setting": "LDL", "result": "94 ± 10", "unit": "%"}, {"measurement": "Protein, concentration as a function of control", "setting": "LDL", "result": "108 ± 9", "unit": "%"}, {"measurement": "Triglycerides, concentration as a function of control", "setting": "LDL", "result": "73 ± 6", "unit": "%"}, {"measurement": "Cholesterol, concentration as a function of control", "setting": "VLDL", "result": "40 ± 4", "unit": "%"}, {"measurement": "Neutral Lipids, concentration as a function of control", "setting": "VLDL", "result": "63 ± 6", "unit": "%"}, {"measurement": "Phospholipids, concentration as a function of control", "setting": "VLDL", "result": "95 ± 7", "unit": "%"}, {"measurement": "Protein, concentration as a function of control", "setting": "VLDL", "result": "96 ± 8", "unit": "%"}, {"measurement": "Triglycerides, concentration as a function of control", "setting": "VLDL", "result": "69 ± 5", "unit": "%"}, {"measurement": "Percent Control, in vivo enzyme activity", "setting": "HMG CoA Reductase [1]; 10 mg/kg/day ip", "result": "123 ± 5", "unit": "%"}, {"measurement": "Percent Control, in vivo enzyme activity", "setting": "HMG CoA Reductase [1]; 20 mg/kg/day ip", "result": "133 ± 9", "unit": "%"}, {"measurement": "Percent Control, in vivo enzyme activity", "setting": "HMG CoA Reductase [1]; 40 mg/kg/day ip", "result": "146 ± 7", "unit": "%"}, {"measurement": "Percent Control, in vivo enzyme activity", "setting": "HMG CoA Reductase [1]; 60 mg/kg/day ip", "result": "124 ± 6", "unit": "%"}, {"measurement": "Cholesterol, concentration as a function of control", "setting": "Liver", "result": "65 ± 5", "unit": "%"}, {"measurement": "Mg Lipid Wt, concentration as a function of control", "setting": "Liver", "result": "89 ± 7", "unit": "%"}, {"measurement": "Neutral Lipids, concentration as a function of control", "setting": "Liver", "result": "80 ± 5", "unit": "%"}, {"measurement": "Phospholipids, concentration as a function of control", "setting": "Liver", "result": "98 ± 9", "unit": "%"}, {"measurement": "Protein, concentration as a function of control", "setting": "Liver", "result": "97 ± 7", "unit": "%"}, {"measurement": "Triglycerides, concentration as a function of control", "setting": "Liver", "result": "76 ± 6", "unit": "%"}, {"measurement": "remaining activity at 50 µM", "setting": "HMG CoA Reductase [2]; 50 μM", "result": "95 ± 5", "unit": "%"}, {"measurement": "remaining activity at 100 µM", "setting": "HMG CoA Reductase [2]; 100 μM", "result": "151 ± 9", "unit": "%"}, {"measurement": "remaining activity at 200 µM", "setting": "HMG CoA Reductase [2]; 200 μM", "result": "255 ± 8", "unit": "%"}]}]}
